Test system: Energy system protein genes
Assay: DNA chip mRNA expression in yeast, energy system protein genes (Table 4)
Assay type: cell-based, Saccharomyces cerevisiae S288C
Summary of the method: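 Ratios compare mRNA levels in stressed and control S. cerevisiae. Each toxicant was applied for two hours to log-phase cultures at 25° C. at a sub-lethal, growth-inhibiting level; fluorescent cDNA (Cy3- or Cy5-dUTP) was hybridized to a genome-wide yeast chip for over 12 h at 65° C.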

O=[N+]([O-])c1cc[n+]([O-])c2ccccc12 [(5), 4-nitroquinolin-N-oxide]
The level of expressed mRNA in the presence of chemical substance/The level of expressed mRNA in the absence of chemical substance (yeast gene YAL060W): 1.2
The level of expressed mRNA in the presence of chemical substance/The level of expressed mRNA in the absence of chemical substance (yeast gene YBL058W, cells incubated two hours with the chemical substance): 1.6
The level of expressed mRNA in the presence of chemical substance/The level of expressed mRNA in the absence of chemical substance (yeast gene YBL099W, cells incubated two hours with the chemical substance): 1.0
The level of expressed mRNA in the presence of chemical substance/The level of expressed mRNA in the absence of chemical substance (yeast gene YBR001C, cells incubated two hours with the chemical substance): 0.9
The level of expressed mRNA in the presence of chemical substance/The level of expressed mRNA in the absence of chemical substance (yeast gene YBR185C, cells incubated two hours with the chemical substance): 0.8
The level of expressed mRNA in the presence of chemical substance/The level of expressed mRNA in the absence of chemical substance (yeast gene YBR221C, cells incubated two hours with the chemical substance): 1.3
The level of expressed mRNA in the presence of chemical substance/The level of expressed mRNA in the absence of chemical substance (yeast gene YCL040W): 0.5
The level of expressed mRNA in the presence of chemical substance/The level of expressed mRNA in the absence of chemical substance (yeast gene YCR012W): 1.1
The level of expressed mRNA in the presence of chemical substance/The level of expressed mRNA in the absence of chemical substance (yeast gene YCR046C, cells incubated two hours with the chemical substance): 1.0
The level of expressed mRNA in the presence of chemical substance/The level of expressed mRNA in the absence of chemical substance (yeast gene YCR105W, cells incubated two hours with the chemical substance): 0.9
The level of expressed mRNA in the presence of chemical substance/The level of expressed mRNA in the absence of chemical substance (yeast gene YDL021W): 1.7
The level of expressed mRNA in the presence of chemical substance/The level of expressed mRNA in the absence of chemical substance (yeast gene YDL067C, cells incubated two hours with the chemical substance): 2.0
The level of expressed mRNA in the presence of chemical substance/The level of expressed mRNA in the absence of chemical substance (yeast gene YDL078C, cells incubated two hours with the chemical substance): 1.3
The level of expressed mRNA in the presence of chemical substance/The level of expressed mRNA in the absence of chemical substance (yeast gene YDL107W, cells incubated two hours with the chemical substance): 1.0
The level of expressed mRNA in the presence of chemical substance/The level of expressed mRNA in the absence of chemical substance (yeast gene YDL174C): 0.5
The level of expressed mRNA in the presence of chemical substance/The level of expressed mRNA in the absence of chemical substance (yeast gene YDL181W, cells incubated two hours with the chemical substance): 1.7
The level of expressed mRNA in the presence of chemical substance/The level of expressed mRNA in the absence of chemical substance (yeast gene YDR001C): 1.1
The level of expressed mRNA in the presence of chemical substance/The level of expressed mRNA in the absence of chemical substance (yeast gene YDR050C, cells incubated two hours with the chemical substance): 0.9
The level of expressed mRNA in the presence of chemical substance/The level of expressed mRNA in the absence of chemical substance (yeast gene YDR079W, cells incubated two hours with the chemical substance): 1.2
The level of expressed mRNA in the presence of chemical substance/The level of expressed mRNA in the absence of chemical substance (yeast gene YDR178W, cells incubated two hours with the chemical substance): 0.9
The level of expressed mRNA in the presence of chemical substance/The level of expressed mRNA in the absence of chemical substance (yeast gene YDR231C): 1.1
The level of expressed mRNA in the presence of chemical substance/The level of expressed mRNA in the absence of chemical substance (yeast gene YDR298C, cells incubated two hours with the chemical substance): 1.3
The level of expressed mRNA in the presence of chemical substance/The level of expressed mRNA in the absence of chemical substance (yeast gene YDR377W, cells incubated two hours with the chemical substance): 1.9
The level of expressed mRNA in the presence of chemical substance/The level of expressed mRNA in the absence of chemical substance (yeast gene YDR529C, cells incubated two hours with the chemical substance): 1.2
The level of expressed mRNA in the presence of chemical substance/The level of expressed mRNA in the absence of chemical substance (yeast gene YEL024W, cells incubated two hours with the chemical substance): 1.3
The level of expressed mRNA in the presence of chemical substance/The level of expressed mRNA in the absence of chemical substance (yeast gene YEL039C, cells incubated two hours with the chemical substance): 0.9
The level of expressed mRNA in the presence of chemical substance/The level of expressed mRNA in the absence of chemical substance (yeast gene YER178W): 0.7
The level of expressed mRNA in the presence of chemical substance/The level of expressed mRNA in the absence of chemical substance (yeast gene YFL057C): 0.9
The level of expressed mRNA in the presence of chemical substance/The level of expressed mRNA in the absence of chemical substance (yeast gene YFR053C): 0.9
The level of expressed mRNA in the presence of chemical substance/The level of expressed mRNA in the absence of chemical substance (yeast gene YGL018C, cells incubated two hours with the chemical substance): 1.1
The level of expressed mRNA in the presence of chemical substance/The level of expressed mRNA in the absence of chemical substance (yeast gene YGL062W): 0.9
The level of expressed mRNA in the presence of chemical substance/The level of expressed mRNA in the absence of chemical substance (yeast gene YGL187C, cells incubated two hours with the chemical substance): 1.3
The level of expressed mRNA in the presence of chemical substance/The level of expressed mRNA in the absence of chemical substance (yeast gene YGL191W, cells incubated two hours with the chemical substance): 0.9
The level of expressed mRNA in the presence of chemical substance/The level of expressed mRNA in the absence of chemical substance (yeast gene YGL205W, cells incubated two hours with the chemical substance): 1.1
The level of expressed mRNA in the presence of chemical substance/The level of expressed mRNA in the absence of chemical substance (yeast gene YGL256W, cells incubated two hours with the chemical substance): 0.7
The level of expressed mRNA in the presence of chemical substance/The level of expressed mRNA in the absence of chemical substance (yeast gene YGR008C): 0.9
The level of expressed mRNA in the presence of chemical substance/The level of expressed mRNA in the absence of chemical substance (yeast gene YGR043C): 0.9
The level of expressed mRNA in the presence of chemical substance/The level of expressed mRNA in the absence of chemical substance (yeast gene YGR062C, cells incubated two hours with the chemical substance, 25° C., YPD medium): 0.7
The level of expressed mRNA in the presence of chemical substance/The level of expressed mRNA in the absence of chemical substance (yeast gene YGR087C, cells incubated two hours with the chemical substance): 1.0
The level of expressed mRNA in the presence of chemical substance/The level of expressed mRNA in the absence of chemical substance (yeast gene YGR174C, cells incubated two hours with the chemical substance): 1.0
The level of expressed mRNA in the presence of chemical substance/The level of expressed mRNA in the absence of chemical substance (yeast gene YGR192C): 1.1
The level of expressed mRNA in the presence of chemical substance/The level of expressed mRNA in the absence of chemical substance (yeast gene YGR244C): 0.8
The level of expressed mRNA in the presence of chemical substance/The level of expressed mRNA in the absence of chemical substance (yeast gene YGR254W): 1.2
The level of expressed mRNA in the presence of chemical substance/The level of expressed mRNA in the absence of chemical substance (yeast gene YHR179W): 1.2
The level of expressed mRNA in the presence of chemical substance/The level of expressed mRNA in the absence of chemical substance (yeast gene YIL160C): 1.0
The level of expressed mRNA in the presence of chemical substance/The level of expressed mRNA in the absence of chemical substance (yeast gene YIR031C, cells incubated two hours with the chemical substance): 1.6
The level of expressed mRNA in the presence of chemical substance/The level of expressed mRNA in the absence of chemical substance (yeast gene YJL052W): 0.7
The level of expressed mRNA in the presence of chemical substance/The level of expressed mRNA in the absence of chemical substance (yeast gene YJL121C, cells incubated two hours with the chemical substance): 1.0
The level of expressed mRNA in the presence of chemical substance/The level of expressed mRNA in the absence of chemical substance (yeast gene YJL166W, cells incubated two hours with the chemical substance): 1.6
The level of expressed mRNA in the presence of chemical substance/The level of expressed mRNA in the absence of chemical substance (yeast gene YJL216C, cells incubated two hours with the chemical substance): 0.8

— patent US8192962B2, “Processes for detecting toxic substances” (Daikin Industries, Ltd., priority 2001, dated 2012)
